As usually defined, the EC50 is the concentration needed to bring the measured effect to its halfway point. One may read the ED50 as the dose at which the effect has come halfway, by size or by number of responders.

Drawing on US4895867A, “2-(5-phenyl-2-furanyl)imidazoles useful as cardiotonic agents” (Norwich Eaton Pharmaceuticals, Inc., priority 1988, dated 1990), this text covers EC50 and ED50 for 34 compounds.

Structures are written as SMILES. Structures can show the parent of a compound that is named as a salt. A value given as a limit tells only on which side of the number the result lay.

One assay deals with guinea pig atrial muscle. Kind of assay: In vitro guinea pig atrial muscle contractile force measurement (Test Method I). The format is cell-based. The conditions noted are these: Cavia porcellus; calculated concentration required to increase the contractile force by 50% from the control level; isolated left atria, 30° C., mean of at least three tissues. The text has this:
Kaplan, "Strategy for the Discovery and Development of a Positive Inotropic Agent", Pharmacology and Therapeutics, Vol. 16 (1982), pp. 303-330. This test measures the effects of such compounds on the contractility of cardiac tissue excised from the atrial muscle of a guinea pig. In vitro guinea pig atrial muscle contractile force measurement Unfasted male Hartley albino guinea pigs, weighing 450-650 g (Charles River Breeding Laboratories, Inc., Wilmington, MA) were used in these studies. They were killed by cranial concussion at the beginning of the experiment. The heart was quickly removed into a Petri dish filled with a solution of the following composition (in water): NaCl 99.0 mM; Dextrose 11.0 mM; […]; MgSO4 1.2 mM; NaH2 PO4 1.3 mM; CaCl2.2H2 O 2.5 mM; NaHCO3 25.01 mM; bubbled with 95% 02 :5% CO2 at room temperature. A triple O silk ligature was tied to the edge of the left atrial appendage, using an intestinal needle. The appendage was cut off; a section was cut away from the wall which faced the heart, retaining a sheet of tissue from the outer face of the atrium. The tissue was mounted from a pair of point stimulating electrode hooks with 1 gram of tension in an organ bath maintained at 30° C. The ligature was tied to a Grass FT-103 force-displacement transducer, and responses were measured in grams of developed tension with a Grass Model 7 polygraph (Grass Instrument Co., Quincy, MA). The left atria were stimulated electrically with the following square wave parameters: 3 v; 4 msec 1 Hz, as soon as they were put into the baths. After a short time (3-5 minutes), voltage was increased until stable responses were obtained (10-25% above threshold). The tissues were allowed to equilibrate under such stimulation for at least 1 hour before experimentation. The test compounds were dissolved in water, if water soluble, or if not, in tetrahydrofurfuryl alcohol (Eastman D5C) or in an organic vehicle containing 90% polyethylene glycol, 6% ethanol, 3% propylene glycol and 1% H2 O). (Test compound solution concentrations were selected to keep injection volumes between 1 and 10 μl). Isoproterenol (0.54 to 5.4 nM) was given at the beginning of each experiment to confirm the viability and responsiveness of the tissues. Test agents were given in several graded doses in logarithmic increments. Responsiveness to isoproterenol was also assessed at the end of the experiment unless other positive drug responses were obtained near the end of the experiment. Results were expressed as percent change from control for contractile force. The EC50 value (calculated concentration required to increase the contractile force by 50% from the control level) for each tissue was obtained, where possible, by regression analysis. The mean of the EC50 values was obtained from at least three individual tissues for each compound tested. Compounds having the following chemical structure were tested for cardiotonic activity according to one or both of the above test methods: [drawing 3] Determinations of contractile force EC50 according to Test Method I and ventricular pressure ED50 according to Test Method II which have been obtained for the compounds are provided in Table I: […]
On to `Cc1c[nH]c(-c2ccc(-c3ccccc3Br)o2)n1` [Example 32, 2-[5-(2-Bromophenyl)-2-furanyl]-4-methyl-1H-imidazole Hydrochloride], for which the EC50 was 1.7 µM.

For the compound `Cc1c[nH]c(-c2ccc(-c3ccc(Br)cc3)o2)n1` [Example 23, 2-[5-(4-Bromophenyl)-2-furanyl]-4-methyl-1H-imidazole Hydrochloride], the EC50 is 0.5 µM.

`c1ccc(-c2ccc(-c3ncc[nH]3)o2)cc1` [Example 6]: the EC50 was 22.9 µM.

For `Cc1ccc(-c2ccc(-c3ncc[nH]3)o2)cc1` [Example 19, 2-[5-(4-methylphenyl)-2-furanyl]-1H-imidazole hydrochloride], the EC50 was 3.7 µM.

For the compound `FC(F)(F)c1cccc(-c2ccc(-c3ncc[nH]3)o2)c1` [Example 3], the EC50 is 6.5 µM.

Consider `FC(F)(F)c1ccccc1-c1ccc(-c2ncc[nH]2)o1` [Example 11], for which the EC50 was 28.2 µM.

On to `FC(F)(F)c1cc(-c2ccc(-c3ncc[nH]3)o2)ccc1Br` [Example 26], for which the EC50 was 4 µM.

`Cc1cn(C)c(-c2ccc(-c3ccc(Br)cc3)o2)n1` [Example 34, 2-[5-(4-Bromophenyl)-2-furanyl]-1,4-dimethyl-1H-imidazole Hydrochloride Hydrate]: the EC50 was above 100 µM.

On to `Clc1ccc(-c2ccc(-c3ncc[nH]3)o2)cc1` [Example 2], for which the EC50 was 3.5 µM.

`COc1ccc(-c2ccc(-c3ncc[nH]3)o2)cc1OC` [Example 4]: the EC50 was 190 µM.

Regarding `Cc1cc(Br)ccc1-c1ccc(-c2ncc[nH]2)o1` [Example 31, 2-[5-(4-Bromo-2-methylphenyl)-2-furanyl]-1H-imidazole Hydrochloride], the EC50 is 1.9 µM.

As to `Cn1ccnc1-c1ccc(-c2ccc(Br)cc2)o1` [Example 22], the EC50 is above 100 µM.

As for `Cc1cnc(-c2ccc(-c3ccc(Br)cc3)o2)n1C` [Example 33, 2-[5-(4-Bromophenyl)-2-furanyl]-1,5-dimethyl-1H-imidazole Hydrochloride], the EC50 was 50.2 µM.

As to `O=[N+]([O-])c1ccccc1-c1ccc(-c2ncc[nH]2)o1` [Example 5], the EC50 was 60 µM.

For the compound `COc1cc(-c2ccc(-c3ncc[nH]3)o2)ccc1Br` [Example 29, 2-[5-(4-Bromo-3-methoxyphenyl)-2-furanyl]-1H-imidazole Hydrochloride], the EC50 is 3.4 µM.

For `Brc1cccc(Br)c1-c1ccc(-c2ncc[nH]2)o1` [Example 24], the EC50 is above 100 µM.

With `Cc1ccc(-c2ccc(-c3ncc[nH]3)o2)c(Br)c1` [Example 25], the EC50 was 1.5 µM.

Consider `Cn1ccnc1-c1ccc(-c2ccccc2Br)o1` [Example 18], for which the EC50 is 21.1 µM.

On to `CCn1ccnc1-c1ccc(-c2ccccc2Br)o1` [Example 30, 2-[5-(2-Bromophenyl)-2-furanyl]-1-ethyl-1H-imidazole Hydrochloride], for which the concentration giving a half-maximal response (EC50) was 21.2 µM.

Take `Clc1ccccc1-c1ccc(-c2ncc[nH]2)o1` [Example 9]: the EC50 was 3.7 µM.

Consider `Fc1ccccc1-c1ccc(-c2ncc[nH]2)o1` [Example 10], for which the EC50 is 7.2 µM.

With `CC(=O)c1ccc(-c2ccc(-c3ncc[nH]3)o2)cc1` [Example 7], the 50% effective concentration (EC50) is 40 µM.

As to `Fc1ccc(-c2ccc(-c3ncc[nH]3)o2)cc1` [Example 15], the EC50 was 33.4 µM.

For the compound `Brc1ccc(-c2ccc(-c3ncc[nH]3)o2)c(Br)c1` [Example 21], the EC50 is 8 µM.

Regarding `FC(F)(F)c1ccc(-c2ccc(-c3ncc[nH]3)o2)cc1` [Example 16], the EC50 was 3 µM.

As for `O=[N+]([O-])c1ccc(-c2ccc(-c3ncc[nH]3)o2)cc1` [Example 1], the 50% effective concentration (EC50) was 260 µM.

With `Clc1ccc(-c2ccc(-c3ncc[nH]3)o2)c(Cl)c1` [Example 12], the EC50 is 1.3 µM.

With `Brc1ccc(-c2ccc(-c3ncc[nH]3)o2)cc1` [Example 14], the EC50 was 1.3 µM.

With `Clc1ccc(-c2ccc(-c3ncc[nH]3)o2)cc1Cl` [Example 13], the EC50 was 5.4 µM.

As for `Brc1ccccc1-c1ccc(-c2ncc[nH]2)o1` [Example 8, 2-[5-(2-Bromophenyl)-2-furanyl]imidazole Hydrochloride Tetartohydrate], the EC50 is 5.7 µM.

Turning to `COc1ccc(-c2ccc(-c3ncc[nH]3)o2)c([N+](=O)[O-])c1` [Example 17], the EC50 was 8.2 µM.

Regarding `COc1ccc(-c2ccc(-c3ncc[nH]3)o2)cc1` [Example 28], the EC50 is 28 µM.

For `Ic1ccc(-c2ccc(-c3ncc[nH]3)o2)cc1` [Example 27], the EC50 is 10.3 µM.

As to `CC(C)c1ccc(-c2ccc(-c3ncc[nH]3)o2)cc1` [Example 20, 2-[5-[4-(1-Methylethyl)phenyl]-2-furanyl]-1H-imidazole Hydrochloride], the half-maximal effective concentration (EC50) is 6.8 µM.

The test system of another assay is right ventricle of guinea pig. Kind of assay: In vivo guinea pig ventricular pressure measurement (Test Method II). As to conditions: Cavia porcellus, iv; calculated dose required to increase the right ventricular pressure by 50% from the control level, anesthetized guinea pig. How it is done:
An additional or alternative method for testing the cardiotonic activity of compounds of the present invention is set forth in the following reference: Beek, O. G., "A Small Animal Model for Monitoring Inotropic Responses to Cardiotonic Agents", Journal of Pharmacological Methods, Vol. 7 (1982), pp. 321-329. Right ventricular inotropic responses are measured in an anesthetized, close-chested guinea pig using a pressure-sensitive transducer inserted into the right ventricle of the heart via the right jugular vein.
In vivo guinea pig ventricular pressure measurement
Unfasted male Hartley albino guinea pigs, weighing 450-650 g (Charles River Breeding Laboratories, Inc., Wilmington, MA) were used in these studies. Under ethyl carbamate (urethane) anesthesia (1.25 g/kg i.p.), the trachea was cannulated through a mid-ventral cervical incision. The left carotid artery was cannulated with PE-50 tubing (Clay Adams Co., Parsippany, NJ) filled with 100 µg/ml heparin for blood pressure monitoring, and the left jugular vein was cannulated (catheter filled with saline) for drug administration. A 3Fr Millar Mikro-Tip ventricular pressure catheter (Millar instruments, Inc., Houston, Texas) was positioned in the right ventricle via the right jugular vein. A thoracotomy was performed and the guinea pig was respired by a rodent respirator (Model 680, Harvard Apparatus Co., Millis, MA) at a rate of 8 ml/stroke×40 strokes/minute. A modified Brodie strain gauge (Warren Research Products, Charleston, South Carolina) was sutured on the right ventricle parallel to, but avoiding, the intraventricular septum. The rectal body temperature of 37° C. was maintained by an electronic temperature controlled lamp. The animals were left undisturbed for 60 minutes before being used for an experiment.
A single i.v. bolus does of 0.3 μg/kg isoproterenol was administered followed by a 0.2 ml saline flush prior to and at the end of each experiment to check the viability and responsiveness of each animal. Usually a vehicle does in a volume equal to the single largest volume of compound to be administered was intravenously injected 20-30 minutes after the initial isoproterenol injection when parameters had returned to baseline levels. A non-cumulative dose response curve was determined for each compound using a minimum of 3 doses. Time between doses for all compounds was dependent upon the time needed for all parameters to return to baseline or stable levels. A minimum of 3 animals per dose level was tested for each compound.
Results were expressed as percent changes from pretreatment baseline for all parameters measured. The ED50 values of ventricular pressure changes (calculated dose required to increase the right ventricular pressure by 50% from the control level) of test compounds were determined by regression analysis.
Compounds having the following chemical structure were tested for cardiotonic activity according to one or both of the above test methods: [drawing 3] Determinations of contractile force EC50 according to Test Method I and ventricular pressure ED50 according to Test Method II which have been obtained for the compounds are provided in Table I: […]
On to `c1ccc(-c2ccc(-c3ncc[nH]3)o2)cc1` [Example 6], for which the ED50 is 1.98 mg/kg.

Turning to `Clc1ccc(-c2ccc(-c3ncc[nH]3)o2)cc1` [Example 2], the ED50 was 0.31 mg/kg.

Regarding `COc1ccc(-c2ccc(-c3ncc[nH]3)o2)cc1OC` [Example 4], the ED50 is 3.16 mg/kg.

On to `O=[N+]([O-])c1ccccc1-c1ccc(-c2ncc[nH]2)o1` [Example 5], for which the ED50 is 29.1 mg/kg.

For the compound `Clc1ccc(-c2ccc(-c3ncc[nH]3)o2)c(Cl)c1` [Example 12], the ED50 is 2.05 mg/kg.

`Brc1ccccc1-c1ccc(-c2ncc[nH]2)o1` [Example 8, 2-[5-(2-Bromophenyl)-2-furanyl]imidazole Hydrochloride Tetartohydrate]: the ED50 was 0.8 mg/kg.
